Measurements as given in patent publication US20260262643A1, “HERBICIDAL BENZOXAZINES” (FMC CORPORATION, priority 2022, published 2026).

What was measured:
pigweed, palmer [1] = test: Test C postemergence; assay type: in vivo, Amaranthus palmeri; conditions: 10 days
Outline: (§1)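 Greenhouse herbicide screen, 10-day duration. Test chemicals in solvent/surfactant blend were sprayed onto soil at sowing (pre) or onto 2–10 cm seedlings at one to two leaves (post); injury scored visually against controls, 0 no effect to 100 complete control.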

ducksalad = test: Test D flooded paddy test; assay type: in vivo, Heteranthera limosa; conditions: 250 g ai/ha, applied to paddy water, visual rating after 13 to 14 days, scale 0 to 100 (0 no effect, 100 complete control)
Outline: (§2)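 Compounds go straight into paddy water over 2-leaf plants in pots flooded to 3 cm. Greenhouse holding lasts 13 to 14 days. Injury is scored by eye against controls from 0 (none) to 100 (complete control).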

wheat [2] = test: Test C preemergence; assay type: in vivo, Triticum aestivum; conditions: 0 to 100 scale (0 no effect, 100 complete control)
Outline: as §1

green foxtail [3] = test: Test C preemergence; assay type: in vivo, Setaria viridis; conditions: 0 to 100 scale (0 no effect, 100 complete control)
Outline: as §1

green foxtail [4] = test: Test C postemergence; assay type: in vivo, Setaria viridis; conditions: 10 days
Outline: as §1

rice = test: Test D flooded paddy test; assay type: in vivo, Oryza sativa; conditions: 250 g ai/ha, applied to paddy water, visual rating after 13 to 14 days, scale 0 to 100 (0 no effect, 100 complete control)
Outline: as §2

ragweed [5] = test: Test C postemergence; assay type: in vivo, Ambrosia artemisiifolia; conditions: 10 days
Outline: as §1

oat, wild [6] = test: Test C preemergence; assay type: in vivo, Avena fatua; conditions: 0 to 100 scale (0 no effect, 100 complete control)
Outline: as §1

oat, wild [7] = test: Test C postemergence; assay type: in vivo, Avena fatua; conditions: 10 days
Outline: as §1

ryegrass, Italian [8] = test: Test C preemergence; assay type: in vivo, Lolium multiflorum; conditions: 0 to 100 scale (0 no effect, 100 complete control)
Outline: as §1

wheat [9] = test: Test C postemergence; assay type: in vivo, Triticum aestivum; conditions: 10 days
Outline: as §1

soybean [10] = test: Test C postemergence; assay type: in vivo, Glycine max; conditions: 10 days
Outline: as §1

kochia [11] = test: Test C postemergence; assay type: in vivo, Bassia scoparia; conditions: 10 days
Outline: as §1

ryegrass, Italian [12] = test: Test C postemergence; assay type: in vivo, Lolium multiflorum; conditions: 10 days
Outline: as §1

kochia [13] = test: Test C preemergence; assay type: in vivo, Bassia scoparia; conditions: 0 to 100 scale (0 no effect, 100 complete control)
Outline: as §1

horseweed = test: Test C postemergence; assay type: in vivo, Erigeron canadensis; conditions: 10 days
Outline: as §1

barnyardgrass [14] = test: Test D flooded paddy test; assay type: in vivo, Echinochloa crus-galli; conditions: 250 g ai/ha, applied to paddy water, visual rating after 13 to 14 days, scale 0 to 100 (0 no effect, 100 complete control)
Outline: as §2

barnyardgrass [15] = test: Test C preemergence; assay type: in vivo, Echinochloa crusgalli; conditions: 0 to 100 scale (0 no effect, 100 complete control)
Outline: as §1

sedge, umbrella = test: Test D flooded paddy test; assay type: in vivo, Cyperus difformis; conditions: 250 g ai/ha, applied to paddy water, visual rating after 13 to 14 days, scale 0 to 100 (0 no effect, 100 complete control)
Outline: as §2

pigweed, palmer [16] = test: Test C preemergence; assay type: in vivo, Amaranthus palmeri; conditions: 0 to 100 scale (0 no effect, 100 complete control)
Outline: as §1

blackgrass [17] = test: Test C preemergence; assay type: in vivo, Alopecurus myosuroides; conditions: 0 to 100 scale (0 no effect, 100 complete control)
Outline: as §1

blackgrass [18] = test: Test C postemergence; assay type: in vivo, Alopecurus myosuroides; conditions: 10 days
Outline: as §1

ragweed [19] = test: Test C preemergence; assay type: in vivo, Ambrosia artemisiifolia; conditions: 0 to 100 scale (0 no effect, 100 complete control)
Outline: as §1

corn [20] = test: Test C preemergence; assay type: in vivo, Zea mays; conditions: 0 to 100 scale (0 no effect, 100 complete control)
Outline: as §1

corn [21] = test: Test C postemergence; assay type: in vivo, Zea mays; conditions: 10 days
Outline: as §1

soybean [22] = test: Test C preemergence; assay type: in vivo, Glycine max; conditions: 0 to 100 scale (0 no effect, 100 complete control)
Outline: as §1

barnyardgrass [23] = test: Test C postemergence; assay type: in vivo, Echinochloa crusgalli; conditions: 10 days
Outline: as §1

[24] = 125 g ai/ha, postemergence, 0 to 100 scale, 0 no effect, 100 complete control
[25] = Postemergence, 500 g ai/ha, visual 0 to 100 scale (0 no effect, 100 complete control)
[26] = Preemergence, 500 g ai/ha, visual rating after 10 days
[27] = Test C, preemergence, 125 g ai/ha

COc1cc(C(=O)N2C[C@H](C)Oc3c(Cl)cccc32)cc(-n2cnc(C(C)C)n2)c1 [Compound 212]
Plant response rating, Pigweed, Palmer (pigweed, palmer [1]; [24]): 90 | Plant response rating, Pigweed, Palmer (pigweed, palmer [1]; [25]): 90 | Plant response rating, Ducksalad (Flood) (ducksalad): 95 | Plant response rating, Wheat (wheat [2]; [26]): 30 | Wheat plant response rating (wheat [2]; [27]): 40 | Plant response rating, Foxtail, Green (green foxtail [3]; [26]): 100 | Foxtail, Green plant response rating (green foxtail [3]; [27]): 100 | Plant response rating, Foxtail, Green (green foxtail [4]; [24]): 80 | Plant response rating, Foxtail, Green (green foxtail [4]; [25]): 90 | Plant response rating, Rice (Flood) (rice): 40 | Plant response rating, Ragweed (ragweed [5]; [24]): 20 | Plant response rating, Ragweed (ragweed [5]; [25]): 70 | Plant response rating, Oat, Wild (oat, wild [6]; [26]): 90 | Oat, Wild plant response rating (oat, wild [6]; [27]): 70 | Plant response rating, Oat, Wild (oat, wild [7]; [24]): 40 | Plant response rating, Oat, Wild (oat, wild [7]; [25]): 80 | Plant response rating, Ryegrass, Italian (ryegrass, Italian [8]; [26]): 100 | Ryegrass, Italian plant response rating (ryegrass, Italian [8]; [27]): 90 | Plant response rating, Wheat (wheat [9]; [24]): 20 | Plant response rating, Wheat (wheat [9]; [25]): 80 | Plant response rating, Soybean (soybean [10]; [24]): 100 | Plant response rating, Soybean (soybean [10]; [25]): 100 | Plant response rating, Kochia (kochia [11]; [24]): 80 | Plant response rating, Kochia (kochia [11]; [25]): 90 | Plant response rating, Ryegrass, Italian (ryegrass, Italian [12]; [24]): 50 | Plant response rating, Ryegrass, Italian (ryegrass, Italian [12]; [25]): 70 | Plant response rating, Kochia (kochia [13]; [26]): 90 | Kochia plant response rating (kochia [13]; [27]): 90 | Plant response rating, Horseweed (horseweed; [24]): 0 | Plant response rating, Horseweed (horseweed; [25]): 50 | Plant response rating, Barnyardgrass (Flood) (barnyardgrass [14]): 25 | Plant response rating, Barnyardgrass (barnyardgrass [15]; [26]): 100 | Barnyardgrass plant response rating (barnyardgrass [15]; [27]): 80 | Plant response rating, Sedge, Umbrella (Flood) (sedge, umbrella): 98 | Plant response rating, Pigweed, Palmer (pigweed, palmer [16]; [26]): 100 | Pigweed, Palmer plant response rating (pigweed, palmer [16]; [27]): 100 | Plant response rating, Blackgrass (blackgrass [17]; [26]): 90 | Blackgrass plant response rating (blackgrass [17]; [27]): 60 | Plant response rating, Blackgrass (blackgrass [18]; [24]): 50 | Plant response rating, Blackgrass (blackgrass [18]; [25]): 100 | Plant response rating, Ragweed (ragweed [19]; [26]): 50 | Ragweed plant response rating (ragweed [19]; [27]): 0 | Plant response rating, Corn (corn [20]; [26]): 70 | Corn plant response rating (corn [20]; [27]): 20 | Plant response rating, Corn (corn [21]; [24]): 20 | Plant response rating, Corn (corn [21]; [25]): 90 | Plant response rating, Soybean (soybean [22]; [26]): 100 | Soybean plant response rating (soybean [22]; [27]): 90 | Plant response rating, Barnyardgrass (barnyardgrass [23]; [24]): 30 | Plant response rating, Barnyardgrass (barnyardgrass [23]; [25]): 50
